The text below walks through data of ChEMBL document CHEMBL5120888, “Voratins A-C: Pyridinium Alkaloids from the Marine Dinoflagellate Effrenium voratum with Inhibitory Effects on Biomarkers for Benign Prostatic Hyperplasia” (J Nat Prod, 2022).

Activity calls are given as the source filed them. The calls are words filed in the database; no cut-off is given here.

The subject of data set [1] is RWPE-1. The data set can be described thus: Cytotoxicity against human RWPE-1 cells at 0.1 to 1 uM incubated for 24 hrs by MTT assay. Format: toxicity, cell-based. Conditions: rwpe-1, 24 h, dose 0.1-1 µM.
The nature of data set [2]: Inhibition of testosterone propionate induced PSA expression in human LNCaP cells pretreated with TP for 1 hr followed by compound addition at 10 uM by Western blotting analysis. Format: functional.
For data set [3], the system named is LNCaP. The data set can be described thus: Inhibition of testosterone propionate induced AR expression in human LNCaP cells pretreated with TP for 1 hr followed by compound addition at 1 to 10 uM by Western blotting analysis. Format: functional, cell-based. To be noted: dose 1-10 µM.
The nature of data set [4]: Inhibition of testosterone propionate induced 5AR2 expression in human LNCaP cells pretreated with TP for 1 hr followed by compound addition at 10 uM by Western blotting analysis. Format: functional.
A short description of data set [5]: Inhibition of testosterone propionate induced PSA expression in human RWPE-1 cells pretreated with TP for 1 hr followed by compound addition at 1 to 10 uM by Western blotting analysis. Format: functional. Details: scale not given: the % may be the effect or the level left. Conditions: dose 1-10 µM.
In data set [6] the test system is RWPE-1. Nature of the data set: Inhibition of testosterone propionate induced PCNA expression in human RWPE-1 cells pretreated with TP for 1 hr followed by compound addition at 1 to 10 uM by Western blotting analysis. Format: functional, cell-based. Conditions: dose 1-10 µM.
The subject of data set [7] is LNCaP. Nature of the data set: Inhibition of testosterone propionate induced PSA expression in human LNCaP cells pretreated with TP for 1 hr followed by compound addition at 1 to 10 uM by Western blotting analysis. Format: functional, cell-based. Conditions: dose 1-10 µM.
The subject of data set [8] is LNCaP. The data set can be described thus: Suppression of testosterone propionate induced 5AR2 expression in human LNCaP cells pretreated with TP for 1 hr followed by compound addition at 10 uM by Western blotting analysis. Format: functional, cell-based.
In data set [9] the test system is LNCaP. The data set can be described thus: Suppression of testosterone propionate induced PSA expression in human LNCaP cells pretreated with TP for 1 hr followed by compound addition at 10 uM by Western blotting analysis. Format: functional, cell-based.
The test system of data set [10] is LNCaP. The data set can be described thus: Suppression of testosterone propionate induced AR expression in human LNCaP cells pretreated with TP for 1 hr followed by compound addition at 10 uM by Western blotting analysis. Format: functional, cell-based.

`C=C1C[C@H](C(=O)[O-])O[C@@]2(C1)C[C@@H](C)C[C@H]([C@@H](O)c1cccc3[n+]1CC[C@@H]3C)O2`: the Activity result in the data set on RWPE-1 [1] is recorded as “Non-Toxic”. Moreover, the inhibition at 10 µM in data set [2] and in data set [4] was 53% in each case. The inhibition result with LNCaP [3] is “Active”.
As for `C[C@@H]1C[C@H]([C@@H](O)c2cccc3[n+]2CC[C@@H]3C)O[C@@]2(CC[C@H](C(=O)[O-])O2)C1`, the Activity result with RWPE-1 [1] was “Non-Toxic”; in data set [5] it was 65%. The inhibition at 10 µM in [2] and in [4] was 61% each time. The inhibition entry with LNCaP [3], in the data set with RWPE-1 [6] and with LNCaP [7] was “Active” in each case.
For `CC(C)(C)NC(=O)[C@H]1CC[C@H]2[C@@H]3CC[C@H]4NC(=O)C=C[C@]4(C)[C@H]3CC[C@]12C`, the outcome in the data set with LNCaP [8], in the data set on LNCaP [9] and in the data set with LNCaP [10] was Active.
On to `C=C1C[C@H](C(=O)[O-])O[C@@]2(C1)C[C@@H](C)C[C@H]([C@@H](O)c1cccc3[n+]1CC[C@H]3C)O2`, for which, in the data set on RWPE-1 [1], the Activity entry is given as “Non-Toxic”. Besides, the inhibition entry with LNCaP [3] and with LNCaP [7] was “Active” each time.
